We go through 1 molecule from patent publication US20220125746A1, “METHOD OF PREVENTING OR TREATING TREATMENT-INDUCED GASTROINTESTINAL INJURY” (priority 2019, published 2022).

Where a name gives a salt, the structure may show the parent alone. Where only a bound is given, the exact number is not on record here.

Experiment [1] relates to colon cancer cell lines HCT 116, p53 KO, HT29, SW480, DLD1, PUMA KO. Briefly: CPT-induced apoptosis in colon cancer cell lines (nuclear fragmentation assay). It counts as cell-based, human. To be noted: CPT 500 nM 24 h, PUMAi 25 uM; p53 WT, null, mutant or PUMA null lines. How it is done:
(FIG. 10A) Structure of the PUMA inhibitor lead compound (PUMAi). (FIG. 10B) Lysates of 293 cells transfected with individual plasmids for 24 hours were mixed in the indicated combinations. Lysates were incubated with vehicle or PUMA inhibitor (PUMAi, 25 μM) for 15 min before immunoprecipitation with an anti-HA antibody. The HA-bound proteins and input were analyzed by western blotting. (FIG. 10C) Lysates of 293 cells transfected with individual plasmids for 24 h were mixed in the indicated combinations. Lysates were incubated with vehicle or PUMA Inhibitor (PUMAi, 25 μM) for 15 min before immunoprecipitation with an anti-HA antibody. The HA-bound proteins and input were analyzed by western blotting. (FIG. 10D) Indicated colon cancer cell lines were treated with camptothecin (CPT, 500 nM) for 24 h. […] Apoptosis was measured by nuclear fragmentation assay. […] (FIG. 10E) Cells were treated as in D for 24 h and analyzed by western blotting. […]
After treatment, floating and adhering cells were collected and stained in a solution containing 3.7% formaldehyde, 0.5% NP-40, and Hoechst 33258 (10 ug/ml) (Molecular Probes) in PBS. Apoptosis was assessed through microscopic visualization of condensed and fragmented nuclei, as previously described (Yu J. et al., Proc Natl Acad Sci USA (2003) 100:1931-36, incorporated herein by reference). A minimum of 300 cells per treatment were analyzed in triplicate. […]

The test system of experiment [2] is LGR5+ stem cells. In words: LGR5+ stem cells, niche and DNA damage after CPT-11 in mice. The format is in vivo, mouse. As to the method:
LGR5(GFP)/TUNEL IF. Sections were prepared as described above. […] Sections were then washed in PBS, and TUNEL staining was performed with the ApopTag Fluorescein In Situ Apoptosis Detection Kit (Chemicon) according to the manufacturer's instructions (37, 46).
CD166 IF. Sections were prepared as described above.
p53 BP1 IF: Sections were prepared as described above. […] Sections were then incubated with AlexaFluor-594 goat anti-rabbit secondary antibodies (1:200; A11012; Invitrogen) for 1 hour at room temperature and counterstained with VectaShield plus DAPI.
(§1) Fresh mucosal scrapings from 10 cm of jejunum were washed in cold PBS, resuspended in 700 ul of RNA lysis buffer, and homogenized in a Dounce homogenizer. RNA was isolated using the Quick-RNA MiniPrep kit (Zymo Research) according to the manufacturer's instructions. Organoids were freed from Matrigel using Cell Recovery Solution (Corning), as described in, before RNA isolation. Complementary DNA was generated from 2 ug of total RNA from mice or ˜100 ng of total RNA from colonic organoids and was pooled from three mice or three wells of organoid culture per treatment group using SuperScript III reverse transcriptase (Invitrogen) and random primers. Gene expression was normalized to Gapdh. Representative results are shown, and similar results were obtained in at least three independent experiments. Details on mouse and human primers are found in Tables 1 and 2.

Experiment [3] has as its system primary human colonic organoids. In words: Human colonic organoids treated with CPT. It counts as cell-based. The settings on record: PUMAi 50 uM. As to the method: as §1
Surgically resected intestinal tissues were obtained from Health Science Tissue Bank (HSTB) of UPMC Shadyside Hospital and UPMC Presbyterian Hospital. All samples were obtained with informed consent and approval by the University of Pittsburgh Ethics Committee. Human normal colon crypt isolation and organoid development were performed as previously described with modifications. The complete culture medium for normal human colon organoids contains advanced DMEM/F12 (12634-010, Invitrogen) supplemented with 1× penicillin/streptomycin (15140-122, Invitrogen), 10 mM HEPES (15630-106, Invitrogen), 2 mM GlutaMAX (Invitrogen), 1× B27 (17504-044, Invitrogen), 1XN2 (17502-048, Invitrogen), 1 mM N-Acetylcysteine (A0737, Sigma), 10 nM [leu-15]-Gastrin (G9145, Sigma), 10 mM nicotinamide (N0636, Sigma), 10 μM SB202190 (S7067, Sigma), 50 ng/ml recombinant murine EGF (315-09, Peprotech), 0.5 μM A83-01 (2939, Tocris Bioscience), 10 nM PGE2 (22-961-0, Tocris Bioscience), and 50% WRN-conditioned medium (vol/vol). Freshly isolated crypts were cultured with the same medium plus 10 μM Y-27632 and 100 μg/ml Primocin. Organoids 100 p.m or greater in diameter were enumerated on day 6 after CPT treatment. […]

Experiment [4] deals with LGR5+ stem cells.
Description: WT and Puma KO mice carrying the Lgr5-EGFP-IRES-creERT2 marking allele were treated with CPT-11 and PUMAi over 2 weeks as in FIGS. 5A-5G and analyzed for intestinal phenotypes. (FIG. 6A) GFP (LGR5) immunofluorescence in intestinal crypts. Arrows indicate LGR5^+ (GFP) crypts. Scale bar, 100 um. (FIG. 6B) Quantitation of intestinal crypts containing at least one GFP^+ (LGR5^+) cell. (FIG. 6C) Top: Olfm4 RNA ISH in intestinal crypts. Scale bar, 50 um. Asterisks indicate Olfm4+ crypt cells. Bottom: Percentage of crypts containing at least one Olfm4+ cell. (FIG. 6D) MMP7 immunofluorescence in intestinal crypts. Scale bar, 100 um. (FIG. 6E) Quantitation of MMP7+ crypt cells at the crypt base (CBC region). (FIG. 6F) Top: GFP (LGR5) and MMP7 immunofluorescence in intestinal crypts. Scale bar, 20 um. Asterisks indicate LGR5^+/MMP7^+ cell pairs. Bottom: Quantitation of LGR5^+/MMP7^+ cell pairs per crypt. In (FIG. 6A), (FIG. 6D), and (FIG. 6F), DAPI was used to stain nuclei. In (FIG. 6B), (FIG. 6C), (FIG. 6E), and (FIG. 6F), values are means+SEM; n=3 mice. *P<0.05, **P<0.01, and ***P<0.001 (one-way ANOVA with Tukey post hoc test).
LGR5 (GFP) IF. Sections were deparaffinized and rehydrated through graded ethanols. Antigen retrieval was performed by boiling for 10 minutes in 0.1 M citrate buffer (pH 6.0) with 1 mM EDTA. Non-specific antibody binding was blocked using 20% goat serum (Invitrogen) at room temperature for 30 min. […] Sections were then washed in PBS and mounted with VectaShield+DAPI (Vector Labs).
MMP7 IF. Sections were prepared as described above. Non-specific antibody binding was blocked using 20% chicken serum (Invitrogen) at room temperature for 30 min. Sections were washed in PBS and incubated overnight at 4 °C in a humidified chamber with 1:100 diluted goat anti-MMP7 (AF2967; R&D Systems). […] Sections were then washed in PBS and mounted with VectaShield+DAPI (Vector Labs) for visualization.
LGR5(GFP)/1VIMP7 IF. Sections were prepared as described above. Non-specific antibody binding was blocked using 20% chicken serum (Invitrogen) at room temperature for 30 min. Sections were then stained for GFP as described above, followed by staining for MMP7 as described.
ISH for Olfm4 was carried out with the RNAscope 2.0 BROWN kit (Advanced Cell Diagnostics) according to the manufacturer's instructions. Briefly, tissue sections were baked for 60 min at 60 ÅåC, then deparaffinized in xylene, and rehydrated through graded ethanols. Sections then underwent three pretreatment steps, probe hybridization, six amplification steps, development, and counterstaining.

With `OCCN1CCN(CC(O)COc2ccc3ccccc3c2)CC1` (stereo not drawn) [PUMAi, 1-[4-(2-hydroxyethyl)-1-piperazinyl]-3-(2-naphthyloxy)-2-propanol dihydrochloride], the “camptothecin (CPT)-induced apoptosis in colon cancer cell lines” value in experiment [1] was “did not reduce camptothecin (CPT)-induced apoptosis”. In addition, the “crypt DNA damage by 53BP1 foci” value in the experiment with LGR5+ stem cells [2] (6 hours after single CPT-11 dose, vs control group) is reported as “comparable”. For the same molecule, in the experiment with LGR5+ stem cells [2] (48 hours after a single dose, more so 120 hours after three doses of CPT-11), the “crypt DNA damage by 53BP1 foci” value is recorded as “lower”. Besides, the “decrease of CPT-11-induced apoptosis of LGR5+ cells” value in the experiment on LGR5+ stem cells [2] (LGR5-EGFP reporter mice, CPT-11 200 mg/kg, PUMAi 10 mg/kg 2 h before) is more than 70%. The “suppression of TA marker CD44 mRNA” value with LGR5+ stem cells [2] (after CPT-11, intestinal mucosa) is recorded as “not by PUMAi”. Moreover, the “activation of WNT and NOTCH responsive genes (qRT-PCR)” value in the experiment on LGR5+ stem cells [2] (as early as 6 hours after CPT-11) is “largely suppressed”. The “CPT-11-induced expansion of CD166+ cells” value in the experiment on LGR5+ stem cells [2] (by 96 hours) is “fully suppressed”. For the same molecule, in experiment [3] (24 h after CPT), the “CPT-induced caspase-3 activation” value is “inhibited CPT-induced caspase-3 activation”; the “CPT-induced expression of WNT and NOTCH targets” value was “suppressed CPT-induced expression of WNT and NOTCH targets”. In addition, the “organoid growth after CPT” value in experiment [3] (CPT 500 nM 24 h, day 6) is listed as “enhanced organoid growth”. For the same molecule, the “drop in Olfm4+ crypts (RNA ISH)” value with LGR5+ stem cells [4] (after six doses of CPT-11) was found to be 49%. Further, the “loss and mislocalization of MMP7+ cells and of MMP7+/LGR5+ contact” value with LGR5+ stem cells [4] (repeated CPT-11 treatment) is listed as “suppressed”.
